Assay results: patent US20080207614A1, “QUINAZOLINE DERIVATIVES FOR THE TREATMENT AND PREVENTION OF DIABETES AND OBESITY” (SK CHEMICALS CO., LTD., priority 2004, published 2008)

Legend:
[1] = tested on: AMPK; assay: Measurement of AMPK activity by Western blot in C2C12 cells; format: cell-based; set-up: key to AMPK activity (degree of phosphorylation of serine-79 and threonine-172): fold increase in threonine-172 phosphorylation; AMPK activity (degree of phosphorylation of serine-79): unit not given here; settings: 10 μM for 50 minutes; for AMPK activity (degree of phosphorylation of serine-79 and threonine-172): no superscript: Western blot of serine-79 and threonine-172 phosphorylation; for AMPK activity (class: degree of phosphorylation of threonine-172): strong/mild/weak
Procedure, shortened: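 Western blot readout of AMPK Thr-172 and ACC Ser-79 phosphorylation, normalised against ERK, served as the activity measure. Cells were C2C12 after differentiation, treated 50 minutes with 10 μM test material. Grading by Thr-172 increase: ≥3-fold strong, 1-3-fold mild, <1-fold weak.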

[2] = tested on: C2C12 muscle cells; assay: Analysis of glucose absorption (2-deoxyglucose) in differentiated C2C12 muscle cells; format: cell-based; settings: test materials 10 μM, times relative to control group
Procedure, shortened: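 Uptake of 0.2 μCi 2-deoxyglucose over 20 min, counted radiometrically in lysed cells. Before tracer, compounds (10 μM) were applied for 30 min to C2C12 cells differentiated 6 days in 1% serum and equilibrated 3 h in 5 mM glucose KRB.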

Row | Structure (SMILES) | AMPK activity (degree of phosphorylation of serine-79 and threonine-172) [1] | AMPK activity (class: degree of phosphorylation of threonine-172) [1] | Glucose absorption [2] | AMPK activity (degree of phosphorylation of serine-79) ([1]; footnote a: Western blot of serine-79 phosphorylation)
1 | CC(C)c1nc(NCc2ccccc2)c2ccccc2n1 [Compound 175, Benzyl-(2-isopropylquinazolino-4-yl)-amine] | 4.8 | strong (“strong” means that the degree of phosphorylation of threonine-172 increased by 3 times or more) | 2.7 | 
2 | CC(CO)Nc1nc(-c2ccccc2)nc2ccccc12 (centres unmarked) [Compound 112, 2-(2-Phenylquinazolino-4-ylamino)-propane-1-ol] | 1.7 | strong (“strong” means that the degree of phosphorylation of threonine-172 increased by 3 times or more) | 1.9 | 
3 | COc1ccc(CNc2nc(N3CCOCC3)nc3ccccc23)cc1 [Compound 285, (4-Methoxybenzyl)-(2-morpholino-4-ylquinazolino-4-yl)-amine] | 1.6 |  | 0.8 | 
4 | CC(C)c1nc(NCCc2ccccc2)c2ccccc2n1 [Compound 179, (2-Isopropylquinazolino-4-yl)-phenethylamine] | 3.8 | strong (“strong” means that the degree of phosphorylation of threonine-172 increased by 3 times or more) | 2.9 | 
5 | COc1cccc(CNc2nc(N3CCCCC3)nc3ccccc23)c1OC [Compound 288, (2,3-Dimethoxybenzyl)-(2-piperidino-1-ylquinazolino-4-yl)-amine] | 1.7 |  | 0.8 | 
6 | c1ccc(-c2nc(NCc3ccccn3)c3ccccc3n2)cc1 [Compound 142, (2-Phenylquinazolino-4-yl)-pyridino-2-ylmethylamine] | 1.4 | mild (“mild” means that the degree of phosphorylation of threonine-172 increased by 1 to 3 times) | 1.4 | 
7 | CCSc1nc(NCc2ccc(OC)cc2)c2ccccc2n1 [Compound 25, (2-Ethylsulfanylquinazolino-4-yl)-(4-methoxybenzyl)-amine] |  | strong (“strong” means that the degree of phosphorylation of threonine-172 increased by 3 times or more) | 2.6 | 
8 | CC(C)c1nc(NCc2cccc(C(F)(F)F)c2)c2ccccc2n1 [Compound 178, (2-Isopropylquinazolino-4-yl)-(3-trifluoromethylbenzyl)-amine] | 5.7 | strong (“strong” means that the degree of phosphorylation of threonine-172 increased by 3 times or more) | 4.2 | 
9 | COc1ccc(CNc2nc(C(C)C)nc3ccccc23)cc1 [Compound 177, (2-Isopropylquinazolino-4-yl)-(4-methoxybenzyl)-amine] | 5.5 | strong (“strong” means that the degree of phosphorylation of threonine-172 increased by 3 times or more) | 2.8 | 
10 | COc1ccccc1CNc1nc(C(C)c2ccccc2)nc2ccccc12 (centres unmarked) [Compound 371, (2-Methoxybenzyl)-[2-(1-phenylethyl)-quinazolino-4-yl]-amine] | 2.8 |  | 1.2 | 
11 | COc1ccccc1CNc1nc(N2CCCCC2)nc2ccccc12 [Compound 276, (2-Methoxybenzyl)-(2-piperidino-1-ylquinazolino-4-yl)-amine] | 1.9 |  | 0.8 | 
12 | Clc1ccccc1CNc1nc(-c2ccccc2)nc2ccccc12 [Compound 109, (2-Chlorobenzyl)-(2-phenylquinazolino-4-yl)-amine] | 1.9 | strong (“strong” means that the degree of phosphorylation of threonine-172 increased by 3 times or more) | 1.3 | 
13 | COc1cc(CNc2nc(C(C)c3ccccc3)nc3ccccc23)cc(OC)c1 (centres unmarked) [Compound 376, (3,5-Dimethoxybenzyl)-[2-(1-phenylethyl)-quinazolino-4-yl]-amine] | 1.1 |  | 1.1 | 
14 | COc1ccc(CNc2nc(C(C)c3ccccc3)nc3ccccc23)cc1 (centres unmarked) [Compound 373, (4-Methoxybenzyl)-[2-(1-phenylethyl)-quinazolino-4-yl]-amine] | 2.1 |  | 1.1 | 
15 | COc1ccc(CNc2nc(C3CC3)nc3ccccc23)c(OC)c1 [Compound 390, (2-Cyclopropylquinazolino-4-yl)-(2,4-dimethoxybenzyl)-amine] | 3.8 |  | 1.1 | 
16 | CC(C)CC(C)Nc1nc(-c2ccccc2)nc2ccccc12 (centres unmarked) [Compound 125, (1,3-Dimethylbutyl)-(2-phenylquinazolino-4-yl)-amine] | 1.8 | strong (“strong” means that the degree of phosphorylation of threonine-172 increased by 3 times or more) | 2.8 | 
17 | CC1CCCC(Nc2nc(-c3ccccc3)nc3ccccc23)C1C (centres unmarked) [Compound 143, (2,3-Dimethylcyclohexyl)-(2-phenylquinazolino-4-yl)-amine] | 2.4 | strong (“strong” means that the degree of phosphorylation of threonine-172 increased by 3 times or more) | 2.3 | 
18 | FC(F)(F)c1ccc(CNc2nc(-c3ccccc3)nc3ccccc23)cc1 [Compound 139, (2-Phenylquinazolino-4-yl)-(4-trifluoromethylbenzyl)-amine] | 2.1 | strong (“strong” means that the degree of phosphorylation of threonine-172 increased by 3 times or more) | 2.5 | 
19 | COc1ccc(CNc2nc(C(OC)c3ccccc3)nc3ccccc23)cc1 (centres unmarked) [Compound 362, (4-Methoxybenzyl)-[2-(methoxyphenylmethyl)-quinazolino-4-yl]-amine] | 2.6 |  | 1.2 | 
20 | CCOc1cc2ncnc(NCCCN3CCOCC3)c2cc1OCC [Compound 15, (6,7-Diethoxyquinazolino-4-yl)-(3-morpholino-4-ylpropyl)-amine] |  |  | 0.8 | 2.3^a
21 | COc1cc(OC)c(CNc2nc(C(OC)c3ccccc3)nc3ccccc23)c(OC)c1 (centres unmarked) [Compound 370, [2-(Methoxyphenylmethyl)-quinazolino-4-yl]-(2,4,6-trimethoxybenzyl)-amine] | 7.7 |  | 1.3 | 
22 | COc1cc(CNc2nc(C3CC3)nc3ccccc23)cc(OC)c1 [Compound 387, (2-Cyclopropylquinazolino-4-yl)-(3,5-dimethoxybenzyl)-amine] | 1.5 |  | 1.2 | 
23 | COc1ccc(CNc2nc(N3CCCCC3)nc3ccccc23)c(OC)c1 [Compound 292, (2,4-Dimethoxybenzyl)-(2-piperidino-1-ylquinazolino-4-yl)-amine] | 1.2 |  | 0.7 | 
24 | COc1ccc(OC)c(CNc2ncnc3ccccc23)c1 [Compound 413, (2,5-Dimethoxybenzyl)-quinazolino-4-ylamine] | 1.7 |  | 1.2 | 
25 | CN1CCN(c2nc(NCc3ccc4c(c3)OCO4)c3ccccc3n2)CC1 [Compound 310, Benzo[1,3]dioxol-5-ylmethyl-[2-(4-methylpiperazino-1-yl)-quinazolino-4-yl]-amine] | 1.6 |  | 0.9 | 
26 | COc1cccc(CNc2nc(C(OC)c3ccccc3)nc3ccccc23)c1OC (centres unmarked) [Compound 364, (2,3-Dimethoxybenzyl)-[2-(methoxyphenylmethyl)-quinazolino-4-yl]-amine] | 1.2 |  | 1.3 | 
27 | COc1ccc(CNc2nc(-c3ccccc3)nc3ccccc23)cc1OC [Compound 118, (3,4-Dimethoxybenzyl)-(2-phenylquinazolino-4-yl)-amine] | 2.0 | strong (“strong” means that the degree of phosphorylation of threonine-172 increased by 3 times or more) | 2.1 | 
